# According to US20070191451A1, “USE OF BENZO-HETEROARYL SULFAMIDE DERIVATIVES AS NEUROPROTECTIVE AGENTS” (priority 2006, published 2007):
# Tests used:
# [1] = tested on: Rat Hippocampal Cultures; assay: Cell Titer Glo/Cell Viability in vitro assay, rat hippocampal cultures, insult with 150 μM H2O2; format: cell-based; settings: for Cell Titer Glo/Cell Viability / Cell Titer Glo/Cell Viability, Mean: insult with 150 μM H2O2; for Cell Titer Glo/Cell Viability, Mean: mean of 3 plates, n=9
# Method: (§1) The assay was run according to the procedure listed within the insert of the kit purchased from Promega (see attachment at the end of the application).
# (§2) Cell cultures were prepared as follows. Dissociated hippocampal and cortical cell cultures were established from embryonic day 18 rat fetuses. The fetuses were removed via cesarean section from pregnant dams (Harlan Sprague-Dawley) anesthetized with halothane according to the AVMA Panel on Euthanasia. Pups were decapitated and the brains were removed and placed in Hank's Balanced Salt solution (1×HBSS; Gibco, Rockville, Md.). The hippocampi and cortices were dissected out and pooled according to tissue-type. Tissue was trypsinized for 15 min (1 mg/ml trypsin-HBSS; Worthington, Lakewood, N.J.), rinsed with fresh HBSS, incubated in trypsin inhibitor (1 mg/ml; Sigma, St. Louis, Mo.) for 5 min, rinsed again with fresh HBSS and then triturated in 1 ml fresh HBSS with a fire-polished glass pipette. Dissociated cells were seeded at 10,000 cells/well onto poly-D-lysine coated 96-well plates (BD BioScience, Bedford, Mass.) containing 100 ul/well Eagle's Minimal Essential Media (MEM; Gibco) supplemented with 26 mM NaHCO3 (Sigma), 40 mM glucose (Sigma), 20 mM KCl (Sigma), 1 mM sodium pyruvate (Sigma), 10% (v/v) heat-inactivated fetal bovine serum (Hyclone, Logan, Utah), and 0.001% gentamicin sulfate (Sigma) (pH 7.4). Serum-free cultures were plated and maintained in Neurobasal medium+B27 supplement (Gibco). Cells were allowed to attach for 24h in a humidified 37° C. 5% CO2 incubator before experimental treatment.
# (§3) Test compounds were prepared as follows: A 10 mM stock in DMSO of each compound was diluted 1:50 in DPBS rendering a final stock of 200 μM. […] Equal amounts of vehicle or diluted compound were added to each culture well.
# (§4) A 30% stock solution of hydrogen peroxide (H2O2; Sigma) was diluted with DPBS 1:100 to yield a […] stock. Five microliters of vehicle or H2O2 stock solution was added to each 100 ul culture well to yield a final concentration of 150 uM.
# (§5) Note that in the data listed below, each plate was run in triplicate for a total of n=9.
# [2] = tested on: Rat Cerebral Cortical Cultures; assay: Cell Titer Glo/Cell Viability in vitro assay, rat cerebral cortical cultures, insult with 150 μM H2O2; format: cell-based; settings: for Cell Titer Glo/Cell Viability, Mean: mean of 3 plates
# Method: as §1, §2, §3, §4, §5
# [3] = compound 0.1 μM, Plate 1 (run in triplicate)
# [4] = compound 0.1 μM, Plate 2 (run in triplicate)
# [5] = compound 0.1 μM, Plate 3 (run in triplicate)
# [6] = compound 1 μM, Plate 1 (run in triplicate)
# [7] = compound 1 μM, Plate 2 (run in triplicate)
# [8] = compound 1 μM, Plate 3 (run in triplicate)
# [9] = compound 10 μM, Plate 1 (run in triplicate)
# [10] = compound 10 μM, Plate 2 (run in triplicate)
# [11] = compound 10 μM, Plate 3 (run in triplicate)
structure (smiles),measurement,setting,value
"NS(=O)(=O)NCc1csc2ccccc12 [Compound #1, N-(benzo[b]thien-3-ylmethyl)-sulfamide]",protecting neurons from death and/or damage from oxidative stress or oxidative injury,"[1]; conclusion in words from the data of Tables 4 and 5, H2O2 insult",effective at protecting neurons from death and/or damage
same,Cell Titer Glo/Cell Viability,[1]; [3],28
same,Cell Titer Glo/Cell Viability,[1]; [4],16
same,Cell Titer Glo/Cell Viability,[1]; [5],17
same,"Cell Titer Glo/Cell Viability, Mean",[1]; compound 0.1 μM,20
same,Cell Titer Glo/Cell Viability,[1]; [6],30
same,Cell Titer Glo/Cell Viability,[1]; [7],12
same,Cell Titer Glo/Cell Viability,[1]; [8],13
same,"Cell Titer Glo/Cell Viability, Mean",[1]; compound 1 μM,18
same,Cell Titer Glo/Cell Viability,[1]; [9],41
same,Cell Titer Glo/Cell Viability,[1]; [10],46
same,Cell Titer Glo/Cell Viability,[1]; [11],45
same,"Cell Titer Glo/Cell Viability, Mean","[1]; compound 10 μM, **p < 0.01 (Kruskal-Wallis, Dunn's post-hoc)",44**
"NS(=O)(=O)NCc1csc2ccc(F)cc12 [Compound #8, N-[(5-fluorobenzo[b]thien-3-yl)methyl]-sulfamide]",Cell Titer Glo/Cell Viability,[2]; [3],16
same,Cell Titer Glo/Cell Viability,[2]; [4],43
same,Cell Titer Glo/Cell Viability,[2]; [5],19
same,"Cell Titer Glo/Cell Viability, Mean","[2]; compound 0.1 μM, n=9",26
same,Cell Titer Glo/Cell Viability,[2]; [6],13
same,Cell Titer Glo/Cell Viability,[2]; [7],24
same,Cell Titer Glo/Cell Viability,[2]; [8],12
same,"Cell Titer Glo/Cell Viability, Mean","[2]; compound 1 μM, n=9",16
same,Cell Titer Glo/Cell Viability,[2]; [9],22
same,Cell Titer Glo/Cell Viability,[2]; [10],27
same,Cell Titer Glo/Cell Viability,[2]; [11],30
same,"Cell Titer Glo/Cell Viability, Mean","[2]; compound 10 μM, n=9, *p < 0.05 (Kruskal-Wallis, Dunn's post-hoc)",26*
